Laboratory results from US6358947B1 (American Home Products Corporation, priority 1999, dated 2002).

What was measured:
Assay type in all cases: cell-based
[1] = molecular target: T1, hAR (Homo sapiens, UniProt P10275); assay: Cotransfection assay, AR agonist; conditions: read-out: AR Potency Agon
T1 sequence (P10275 1-920): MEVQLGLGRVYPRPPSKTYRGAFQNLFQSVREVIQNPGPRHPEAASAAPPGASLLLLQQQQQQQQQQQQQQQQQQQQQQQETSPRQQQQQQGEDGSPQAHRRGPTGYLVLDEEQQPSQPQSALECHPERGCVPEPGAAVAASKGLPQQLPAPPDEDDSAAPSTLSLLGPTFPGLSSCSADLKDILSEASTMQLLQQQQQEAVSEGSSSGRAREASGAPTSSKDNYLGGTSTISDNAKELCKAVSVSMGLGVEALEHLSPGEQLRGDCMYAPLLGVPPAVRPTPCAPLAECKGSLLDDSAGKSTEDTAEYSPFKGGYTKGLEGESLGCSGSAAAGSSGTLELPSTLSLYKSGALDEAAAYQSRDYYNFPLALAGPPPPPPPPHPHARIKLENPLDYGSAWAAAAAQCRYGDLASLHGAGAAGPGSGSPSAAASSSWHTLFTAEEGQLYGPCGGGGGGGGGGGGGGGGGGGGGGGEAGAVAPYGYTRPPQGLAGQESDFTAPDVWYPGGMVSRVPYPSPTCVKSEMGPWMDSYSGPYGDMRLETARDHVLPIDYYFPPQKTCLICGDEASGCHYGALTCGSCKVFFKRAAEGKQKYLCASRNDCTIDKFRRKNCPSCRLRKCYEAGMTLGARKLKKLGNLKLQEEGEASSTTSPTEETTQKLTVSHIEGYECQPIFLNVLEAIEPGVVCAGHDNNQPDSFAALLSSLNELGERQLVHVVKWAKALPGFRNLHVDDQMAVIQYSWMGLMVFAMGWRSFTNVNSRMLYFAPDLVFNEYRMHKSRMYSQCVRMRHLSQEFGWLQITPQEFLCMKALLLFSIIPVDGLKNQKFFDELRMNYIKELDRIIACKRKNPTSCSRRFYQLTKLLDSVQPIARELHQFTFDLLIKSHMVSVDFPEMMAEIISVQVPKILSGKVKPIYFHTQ
Description: (§1) The cotransfection assay provides a method for identifying functional agonists and partial agonists that mimic, or antagonists that inhibit, the effect of native hormones, and for quantifying their activity for responsive intracellular receptor (IR) proteins. In this regard, the cotransfection assay mimics an in vivo system in the laboratory. Importantly, activity in the cotransfection assay correlates very well with known in vivo activity, such that the cotransfection assay functions as a qualitative and quantitative predictor of a tested compound's in vivo pharmacology.
(§2) In the cotransfection assay, a cloned cDNA for an IR (e.g., human PR, AR or GR) under the control of a constitutive promoter (e.g., the SV 40 promoter) is introduced by transfection (a procedure to induce cells to take up foreign genes) into a background cell substantially devoid of endogenous IRs. This introduced gene directs the recipient cells to make the IR protein of interest. A second gene is also introduced (cotransfected) into the same cells in conjunction with the IR gene. This second gene, comprising the cDNA for a reporter protein, such as firefly luciferase (LUC), is controlled by an appropriate hormone responsive promoter containing a hormone response element (HRE). This reporter plasmid functions as a reporter for the transcription-modulating activity of the target IR. Thus, the reporter acts as a surrogate for the products (mRNA, then protein) normally expressed by a gene under control of the target receptor and its native hormone.
(§3) The cotransfection assay can detect small molecule agonists or antagonists of target IRs. Exposing the transfected cells to an agonist ligand compound increases reporter activity in the transfected cells. This activity can be conveniently measured, e.g., by increasing luciferase production, which reflects compound-dependent, IR-mediated increases in reporter transcription. […] Increasing concentrations of a suspected antagonist will decrease the reporter signal (e.g., luciferase production). The cotransfection assay is therefore useful to detect both agonists and antagonists of specific IRs. Furthermore, it determines not only whether a compound interacts with a particular IR, but whether this interaction mimics (agonizes) or blocks (antagonizes) the effects of the native regulatory molecules on target gene expression, as well as the specificity and strength of this interaction.

[2] = molecular target: T2, hER (Homo sapiens, UniProt P03372); assay: Cotransfection assay, ER agonist; conditions: read-out: ER Potency Agon
T2 sequence (P03372 1-595): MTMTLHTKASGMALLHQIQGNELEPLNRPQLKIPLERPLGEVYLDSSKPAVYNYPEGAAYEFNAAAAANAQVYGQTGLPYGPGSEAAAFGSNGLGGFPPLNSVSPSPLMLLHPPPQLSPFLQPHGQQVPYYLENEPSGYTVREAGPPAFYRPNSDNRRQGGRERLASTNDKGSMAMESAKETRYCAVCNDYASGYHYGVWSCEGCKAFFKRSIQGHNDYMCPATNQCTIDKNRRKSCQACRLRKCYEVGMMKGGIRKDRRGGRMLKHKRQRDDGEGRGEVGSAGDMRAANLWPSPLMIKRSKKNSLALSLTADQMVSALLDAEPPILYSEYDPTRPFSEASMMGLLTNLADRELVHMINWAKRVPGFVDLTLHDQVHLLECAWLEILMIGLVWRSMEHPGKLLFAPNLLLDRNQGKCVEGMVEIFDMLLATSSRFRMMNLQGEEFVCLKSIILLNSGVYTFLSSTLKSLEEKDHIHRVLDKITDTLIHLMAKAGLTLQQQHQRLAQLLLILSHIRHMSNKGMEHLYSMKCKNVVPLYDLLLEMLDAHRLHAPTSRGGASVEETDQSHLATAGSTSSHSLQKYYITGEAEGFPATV
Description: as §1, §2, §3

[3] = molecular target: T2, hER; assay: Cotransfection assay, ER antagonist; conditions: read-out: ER Potency Antag
Description: as §1, §2, §3

[4] = molecular target: T3, hMR (Homo sapiens, UniProt P08235); assay: Cotransfection assay, MR antagonist; conditions: read-out: MR Potency Antag
T3 sequence (P08235 1-984): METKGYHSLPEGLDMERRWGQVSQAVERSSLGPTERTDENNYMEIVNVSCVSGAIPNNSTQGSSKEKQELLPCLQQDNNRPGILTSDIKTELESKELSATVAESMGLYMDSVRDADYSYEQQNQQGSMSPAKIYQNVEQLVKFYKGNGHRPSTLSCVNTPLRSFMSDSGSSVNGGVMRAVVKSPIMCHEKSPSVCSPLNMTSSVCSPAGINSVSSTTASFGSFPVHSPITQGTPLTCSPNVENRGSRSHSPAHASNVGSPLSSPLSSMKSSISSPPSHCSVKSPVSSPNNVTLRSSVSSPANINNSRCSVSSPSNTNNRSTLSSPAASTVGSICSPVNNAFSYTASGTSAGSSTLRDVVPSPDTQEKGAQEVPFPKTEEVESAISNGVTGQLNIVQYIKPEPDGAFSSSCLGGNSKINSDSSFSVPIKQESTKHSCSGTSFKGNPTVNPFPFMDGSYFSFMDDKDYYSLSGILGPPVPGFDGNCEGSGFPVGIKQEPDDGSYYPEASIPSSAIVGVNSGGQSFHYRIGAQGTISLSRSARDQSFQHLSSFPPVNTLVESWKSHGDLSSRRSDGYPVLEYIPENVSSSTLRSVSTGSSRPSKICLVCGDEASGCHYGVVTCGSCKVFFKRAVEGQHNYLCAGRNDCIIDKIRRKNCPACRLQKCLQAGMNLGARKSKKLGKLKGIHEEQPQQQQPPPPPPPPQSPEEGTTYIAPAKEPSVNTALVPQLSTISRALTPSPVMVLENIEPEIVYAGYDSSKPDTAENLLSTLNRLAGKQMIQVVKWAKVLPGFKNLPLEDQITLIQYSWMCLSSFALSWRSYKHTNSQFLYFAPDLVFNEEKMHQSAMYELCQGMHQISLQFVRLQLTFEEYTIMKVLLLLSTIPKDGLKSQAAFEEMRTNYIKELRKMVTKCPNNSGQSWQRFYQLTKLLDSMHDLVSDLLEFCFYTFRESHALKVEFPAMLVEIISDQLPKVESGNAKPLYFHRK
Description: as §1, §2, §3

CC1(C)OC(=O)Nc2ccc3c(c21)COc1c(F)cc(C#N)cc1-3 [Compound 26, 9-cyano-7-fluoro-4,4-dimethyl-5H-chromeno[3,4-f]-1,3-benzo[d]oxazin-2-one]
> 10 µM: EC50 [1] | EC50 [2] | IC50 [3] | IC50 [4]

CC1(C)OC(=O)Nc2ccc3c(c21)COc1c(F)cc(C=NO)cc1-3 [Compound 25, 7-fluoro-9-hydroxyiminomethyl-4,4-dimethyl-5H-chromeno[3,4-f]-1,3-benzo[d]oxazin-2-one]
> 10 µM: EC50 [1] | EC50 [2] | IC50 [3] | IC50 [4]

CC1(C)OC(=O)Nc2ccc3c(c21)COc1c(F)cccc1-3 [Compound 14, 7-Fluoro-4,4-dimethyl-5H-chromeno[3,4-f]-1,3-benzo[d]oxazin-2-one]
> 10 µM: EC50 [1] | EC50 [2] | IC50 [3] | IC50 [4]

CC1(C)OC(=O)Nc2ccc3c(c21)COc1c(F)cc(Br)cc1-3 [Compound 20, 9-Bromo-7-fluoro-4,4-dimethyl-5H-chromeno[3,4-f]-1,3-benzo[d]oxazin-2-one]
> 10 µM: EC50 [1] | EC50 [2] | IC50 [3] | IC50 [4]

CC1(C)OC(=O)Nc2ccc3c(c21)COc1c(F)cc(C=O)cc1-3 [Compound 24, 7-fluoro-9-formyl-4,4-dimethyl-5H-chromeno[3,4-f]-1,3-benzo[d]oxazin-2-one]
> 10 µM: EC50 [1] | EC50 [2] | IC50 [3] | IC50 [4]
